Measured values published in ChEMBL document CHEMBL5370554, “Discovery of a first-in-class Aurora A covalent inhibitor for the treatment of triple negative breast cancer” (Eur J Med Chem, 2023).
pIC50: −log10 of the molar value. Activity calls are given as the source filed them. The rule behind the calls is not given here.

What was measured:
HeLa = experiment: Antiproliferative activity against human HeLa cells assessed as inhibition of cell proliferation incubated for 48 hrs by CCK-8 assay; type: functional, cell-based
[1] = biological target: T1, Aurora kinase A (Homo sapiens) (UniProt O14965); experiment: Covalent binding affinity to recombinant human Aurora A (1 to 403 residues) expressed in Escherichia coli assessed as dissociation rate constant by surface plasmon resonance analysis
T1 sequence (whole entry): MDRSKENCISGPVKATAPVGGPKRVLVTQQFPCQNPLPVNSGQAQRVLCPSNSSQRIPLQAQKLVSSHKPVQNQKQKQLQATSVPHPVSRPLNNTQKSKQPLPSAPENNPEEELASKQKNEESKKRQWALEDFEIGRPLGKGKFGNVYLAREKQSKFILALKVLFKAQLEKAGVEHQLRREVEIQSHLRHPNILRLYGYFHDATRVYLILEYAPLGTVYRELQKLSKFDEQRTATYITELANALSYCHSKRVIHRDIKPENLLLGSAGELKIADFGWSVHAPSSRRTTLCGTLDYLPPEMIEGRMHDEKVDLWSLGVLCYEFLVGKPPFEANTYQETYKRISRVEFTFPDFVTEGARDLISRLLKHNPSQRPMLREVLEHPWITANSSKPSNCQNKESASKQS

[2] = biological target: T1, Aurora kinase A (Homo sapiens); experiment: Irreversible inhibition of recombinant human Aurora A (1 to 403 residues) expressed in Escherichia coli assessed as ratio of Kinact/Ki using STK-substrate 2-biotin as substrate at 0.625 to 40 uM incubated upto 7000 sec in presence of ATP by HTRF assay; conditions: dose 0.625-40 µM
[3] = biological target: T1, Aurora kinase A (Homo sapiens); experiment: Inhibition of Aurora A in human MDA-MB-231 cells assessed as decrease in Aurora A phosphorylation at Thr288 residue at 0.2 to 0.6 uM incubated for 1 hrs by Western blot analysis; type: cell-based; conditions: dose 0.2-0.6 µM
[4] = biological target: Aurora kinase B (Homo sapiens) (UniProt Q96GD4); experiment: Binding affinity to Aurora B in human MDA-MB-231 cells assessed as thermal stability at 46 to 62 degreeC at 1 uM incubated for 1 hrs by […] analysis; type: cell-based
Chain of Aurora kinase B (Homo sapiens) (Q96GD4 whole entry, the tested form may be a part): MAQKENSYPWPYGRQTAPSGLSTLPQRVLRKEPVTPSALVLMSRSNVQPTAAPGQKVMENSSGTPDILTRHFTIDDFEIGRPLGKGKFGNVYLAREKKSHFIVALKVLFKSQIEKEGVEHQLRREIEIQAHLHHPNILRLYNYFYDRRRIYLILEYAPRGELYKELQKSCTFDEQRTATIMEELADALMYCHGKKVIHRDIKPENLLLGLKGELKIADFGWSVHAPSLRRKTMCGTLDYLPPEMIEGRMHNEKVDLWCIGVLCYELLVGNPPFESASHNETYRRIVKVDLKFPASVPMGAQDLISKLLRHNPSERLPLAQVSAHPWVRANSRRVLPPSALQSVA

Aurora kinase A [5] = biological target: T2, Aurora kinase A (Homo sapiens, UniProt O14965); experiment: Inhibition of recombinant human Aurora A (1 to 403 residues) expressed in Escherichia coli using STK-substrate 2-biotin as substrate incubated for 15 mins in presence of 7.2uM ATP by HTRF assay
T2 sequence (O14965 whole entry): T1 sequence (whole entry)

Aurora kinase A [6] = biological target: T2, Aurora kinase A; experiment: Inhibition of recombinant human Aurora A (1 to 403 residues) expressed in Escherichia coli using STK-substrate 2-biotin as substrate incubated for 40 mins in presence of 2.4uM ATP by HTRF assay
Aurora kinase A [7] = biological target: T2, Aurora kinase A; experiment: Inhibition of recombinant human Aurora A (1 to 403 residues) expressed in Escherichia coli using STK-substrate 2-biotin as substrate incubated for 60 mins in presence of 7.2uM ATP by HTRF assay
Aurora kinase A [8] = biological target: T2, Aurora kinase A; experiment: Inhibition of recombinant human Aurora A (1 to 403 residues) expressed in Escherichia coli using STK-substrate 2-biotin as substrate incubated for 60 mins in presence of 24 uM ATP by HTRF assay
MDA-MB-231 [9] = experiment: Induction of cell cycle arrest in human MDA-MB-231 cells assessed as accumulation at G2/M phase at 5 uM incubated for 24 hrs by PI staining based flow cytometry (Rvb=14.0%); type: functional
MDA-MB-231 [10] = experiment: Induction of apoptosis in human MDA-MB-231 cells assessed as necrotic cells at 5 uM incubated for 24 hrs by Annexin V-FITC staining based flow cytometry (Rvb= 1.67%); type: functional
MDA-MB-231 [11] = experiment: Induction of apoptosis in human MDA-MB-231 cells assessed as late apoptotic cells at 1.25 uM incubated for 24 hrs by Annexin V-FITC staining based flow cytometry (Rvb= 6.90%); type: functional
MDA-MB-231 [12] = experiment: Induction of apoptosis in human MDA-MB-231 cells assessed as late apoptotic cells at 2.5 uM incubated for 24 hrs by Annexin V-FITC staining based flow cytometry (Rvb= 6.90%); type: functional
MDA-MB-231 [13] = experiment: Induction of apoptosis in human MDA-MB-231 cells assessed as late apoptotic cells at 5 uM incubated for 24 hrs by Annexin V-FITC staining based flow cytometry (Rvb= 6.90%); type: functional
MDA-MB-231 [14] = experiment: Induction of apoptosis in human MDA-MB-231 cells assessed as early apoptotic cells at 1.25 uM incubated for 24 hrs by Annexin V-FITC staining based flow cytometry (Rvb= 3.3%); type: functional
MDA-MB-231 [15] = experiment: Induction of apoptosis in human MDA-MB-231 cells assessed as live cells at 1.25 uM incubated for 24 hrs by Annexin V-FITC staining based flow cytometry (Rvb= 88.1%); type: functional
MDA-MB-231 [16] = experiment: Induction of apoptosis in human MDA-MB-231 cells assessed as live cells at 2.5 uM incubated for 24 hrs by Annexin V-FITC staining based flow cytometry (Rvb= 88.1%); type: functional
MDA-MB-231 [17] = experiment: Inhibition of […] in human MDA-MB-231 cells at 1 uM incubated for 14 days by crystal violet staining based colony formation assay (Rvb= 115+/-4%); type: functional; conditions: MDA-MB-231, 336 h, time 14 day
[18] = Metabolic stability in Sprague-Dawley rat liver microsomes assessed as elimination rate constant at 1.75 uM incubated upto 60 mins in presence of NADPH by LC-MS analysis; type: ADME, Microsome
[19] = Metabolic stability in Sprague-Dawley rat liver microsomes assessed as intrinsic clearance at 1.75 uM incubated upto 60 mins in presence of NADPH by LC-MS analysis; type: ADME, Microsome; conditions: read-out: CLH
[20] = Toxicity in BALB/c nude mouse xenografted with human MDA-MB-231 cells assessed as body weight change at 15 mg/kg,ip every 2days for 20 days; type: organism-based; conditions: in vivo, 480 h, time 20 day
Mus musculus [21] = experiment: In vivo inhibition of Aurora signalling pathway in human MDA-MB-231 cells xenografted in BALB/c nude mouse assessed as decrease in Aurora A phosphorylation at Thr288 residue in tumor at 15 mg/kg,ip every 2days for 20 days by Western blot analysis; type: functional, organism-based; conditions: time 20.0 day
Mus musculus [22] = experiment: In vivo inhibition of Aurora signalling pathway in human MDA-MB-231 cells xenografted in BALB/c nude mouse assessed as decrease in Aurora B phosphorylation at Thr232 residue in tumor at 15 mg/kg,ip every 2days for 20 days by Western blot analysis; type: functional, organism-based; conditions: time 20.0 day
[23] = Toxicity in BALB/c nude mouse xenografted with human MDA-MB-231 cells assessed as parenchymal injury in liver at 15 mg/kg,ip every 2days for 20 days by Hematoxylin and Eosin staining based microscopy; type: organism-based; conditions: in vivo, 480 h, time 20 day
[24] = Toxicity in BALB/c nude mouse xenografted with human MDA-MB-231 cells assessed as parenchymal injury in spleen at 15 mg/kg,ip every 2days for 20 days by Hematoxylin and Eosin staining based microscopy; type: organism-based; conditions: in vivo, 480 h, time 20 day
[25] = Toxicity in BALB/c nude mouse xenografted with human MDA-MB-231 cells assessed as inflammatory cell infiltration in spleen at 15 mg/kg,ip every 2days for 20 days by Hematoxylin and Eosin staining based microscopy; type: organism-based; conditions: in vivo, 480 h, time 20 day
[26] = Toxicity in BALB/c nude mouse xenografted with human MDA-MB-231 cells assessed as inflammatory cell infiltration in lung at 15 mg/kg,ip every 2days for 20 days by Hematoxylin and Eosin staining based microscopy; type: organism-based; conditions: in vivo, 480 h, time 20 day

- pIC50 (HeLa): 5.16
- Activity [1]: Active
- Ratio [2]: 6.02 10^3/M/s
- inhibition [3]: Dose-Dependent Effect
- Activity [4]: inactive
- pIC50 (Aurora kinase A [5]): 8.36
- pIC50 (Aurora kinase A [6]): 8.56
- pIC50 (Aurora kinase A [7]): 8.09
- pIC50 (Aurora kinase A [8]): 7.63
- k el at 1 h, 1.75 µM [18]: 0.000467 s⁻¹
- microsomal CLint at 1.75 µM [19]: 71.3 µL/min/mg
Structure (SMILES): C=CC(=O)Nc1ccc(-c2nc(Nc3cc(C)[nH]n3)c3ccc(N4CCN(C)CC4)cc3n2)cc1
- Activity (MDA-MB-231 [9]): 50.8%
- Activity (MDA-MB-231 [10]): 0.27%
- Activity (MDA-MB-231 [11]): 18.1%
- Activity (MDA-MB-231 [12]): 21%
- Activity (MDA-MB-231 [13]): 62.6%
- Activity (MDA-MB-231 [14]): 10.5%
- Activity (MDA-MB-231 [15]): 69.5%
- Activity (MDA-MB-231 [16]): 60.1%
- inhibition at 1 µM (MDA-MB-231 [17]): 13%
- Activity [20]: Non-Toxic
- inhibition (Mus musculus [21]): Active
- inhibition (Mus musculus [22]): inactive
- Activity [23]: Non-Toxic
- Activity [24]: Non-Toxic
- Activity [25]: Non-Toxic
- Activity [26]: Non-Toxic
